In one data set the test system is normal canines. It counts as in vivo, male mongrel dogs. The following applies: IV infusion 8.66 pmol/kg/min.
For data set [1] the following is noted: cited from earlier work.
Another data set has as its system human MasR. Description: cAMP production in HEK293 cells overexpressing human MasR. The format is cell-based. The following applies: 10^-7, 10^-6 and 10^-5 M, 10 min; RIA; vs no treatment; Figure 2B. Background: Cyclic AMP is a second messenger, typically raised through Gs and lowered through Gi signalling.
The subject of the next data set is rodents. The following applies: ANG1-7/MasR, rodents / diet-induced obesity; cited from earlier work.
The test system of data set [2] is diabetic mice and rats overexpressing the mouse Ren2-gene. The following applies: long-term treatment, cited from earlier work.
The test system of a further data set is human pGC-A. Description: cGMP production in HEK293 cells overexpressing human pGC-A. It counts as cell-based. The following applies: 10^-10, 10^-8 and 10^-6 M, 10 min; RIA; vs no treatment; Figure 2A.
The next data set concerns humans with stable HF. The following applies: chronic subcutaneous BNP, human HF; cited from earlier work.
The next data set has as its system HTN. The note with it: cited from earlier work.

Consider Angiotensin 1-7 [ANG1–7], for which the “reduction in MAP compared with BNP and NPA7” value in the data set with normal canines (Figure 4A) is on record as “modest”. In addition, in the data set with normal canines (n=5 (ANG1-7), Figure 4A), the “mean arterial pressure (MAP), during drug infusion” value is given as “did not reduce MAP”. In data set [1], the half-life time entry was “extremely short” and the in vivo degradation entry is “rapid in vivo degradation”. Besides, the “cAMP production (MasR activation)” value with human MasR is on record as “significantly increasing concentrations of cAMP production”. The “obesity-induced HTN and brown adipocyte differentiation” value with rodents is “protection from obesity-induced HTN in rodents and induction of brown adipocyte differentiation”. In addition, the “cardiomyocyte hypertrophy, apoptosis and fibrosis” value in data set [2] (diabetic mice and rats overexpressing the mouse Ren2-gene) is “prevented”. The “cardiac function in diabetic mice” value in data set [2] was “significantly improved”.
For B-type natriuretic peptide [BNP], the “mean arterial pressure (MAP)” value in the data set with normal canines (BNP n=5, NPA7 n=6, Figure 4A) is on record as “reduced MAP significantly”. In addition, the “cGMP production (pGC-A activation)” value in the data set with human pGC-A is listed as “significantly increasing concentrations of cGMP production”. The “symptoms and myocardial structure and function” value in the data set with humans with stable HF is “improved symptoms and myocardial structure and function”.
On to sacubitril/valsartan, for which, in the data set on HTN, the “efficacy in HTN” value was “demonstrated efficacy in HTN”.

The values above are taken from paper PMC6512958 (Hypertension (Dallas, Tex. : 1979), 2019).
